Results published in publication PMC2794843, “Differential regulation of muscarinic M1 receptors by orthosteric and allosteric ligands” (BMC Pharmacology, 2009).

Tests used:
[1] = target: T1, human muscarinic M1 receptor (hM1) (Homo sapiens, UniProt P11229); assay: R-SAT, transiently transfected NIH-3T3 cells; format: cell-based; settings: for pEC50: agonist
T1 construct: gene CHRM1; full-length hM1
T1 sequence (P11229 1-460): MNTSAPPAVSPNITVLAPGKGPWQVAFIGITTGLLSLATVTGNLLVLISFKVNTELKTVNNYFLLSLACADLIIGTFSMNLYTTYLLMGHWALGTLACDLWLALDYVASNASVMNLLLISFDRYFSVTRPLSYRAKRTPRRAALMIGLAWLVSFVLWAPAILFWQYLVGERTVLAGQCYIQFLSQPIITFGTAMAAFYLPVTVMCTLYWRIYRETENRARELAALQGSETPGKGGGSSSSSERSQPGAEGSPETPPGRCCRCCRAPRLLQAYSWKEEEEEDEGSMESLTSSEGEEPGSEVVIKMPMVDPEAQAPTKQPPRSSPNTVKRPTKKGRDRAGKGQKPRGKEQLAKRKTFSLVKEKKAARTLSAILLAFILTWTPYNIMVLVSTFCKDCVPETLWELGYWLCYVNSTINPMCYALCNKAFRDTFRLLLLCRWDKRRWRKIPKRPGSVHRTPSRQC
Description: R-SAT, transiently transfected NIH-3T3 cells on human muscarinic M1 receptor (hM1)

[2] = target: T1, human muscarinic M1 receptor (hM1); assay: PI hydrolysis, CHO-M1 cells; format: cell-based; settings: partial agonist; 60 min, 37°C, 10 mM LiCl; allosteric component
Description: PI hydrolysis, CHO-M1 cells on human muscarinic M1 receptor (hM1)

SMILES	pEC50 [1]	other results
CCCCC1CCN(CCCN2C(=O)COc3cc(F)ccc32)CC1 [AC-260977, (R)-4-[3-(4-butylpiperidin-1-yl)propyl]-7-fluoro-2H-benzo[b][1, 4]oxazin-3-one]	7.7 ± 0.1	–
CCCCC1CCN(CCCN2C(=O)COc3cc(Cl)ccc32)CC1 [AC-260515, 4-[3-(4-butyl-piperidin-1-yl)-propyl]-7-chloro-2H-benzo[b][1, 4]oxazin-3-one]	–	EC50 [1]: 251 nM
O=C1COc2cc(F)ccc2N1CCCN1CCC(OCC2CC2)CC1 [AC-262469, 4-[3-(4-cyclopropylmethyloxypiperidin-1-yl)propyl]-7-fluoro-2H-benzo[b][1, 4]oxazin-3-one]	7.2 ± 0	–
Clc1ccc2c(c1)N=C(N1CCNCC1)c1ccccc1N2 [NDMC]	–	PI Hydrolysis / pEC50 [2]: 7.1 ± 0.4
